Values of other authors in US9925191B2, “Fumarate compounds, pharmaceutical compositions thereof, and methods of use” (priority 2015, dated 2018).

aqueous solubility: poor aqueous solubility
Structure (SMILES): COC(=O)/C=C/C(=O)OC [DMF, dimethylfumarate]
